Data set [1] deals with Helicobacter pylori. The data set is described as follows: Anti-Helicobacter-pylori action (agar plate dilution MIC). The note with it: clinically isolated 10 bacterial strains, agar plate dilution method. The data set is classed as cell-based. The protocol:
Anti-Helicobacter-pylori Action
Using clinically isolated 10 bacterial strains, the minimum inhibitory concentration (MIC) was measured according to the agar plate dilution method.

The test system of data set [2] is gastric acid secretion. In words: Acid-secretion suppression (pyloric ligation). The data set is classed as in vivo, Rats. The note with it: pyloric region ligated, drug to the duodenum, gastric juice after four hours, total acidity by titration; dose not given. On the procedure: Acid-secretion Suppression Rats were fasted for 24 hours and the abdomens of the rats were dissected under anesthesia with ether. The pyloric region was ligated and a drug was administered to the duodenum. After four hours, the stomach was removed and the gastric juice was collected to evaluate the acid-secretion suppresssing effects by measuring the total acidity of the gastric juice through titration.

Data set [3] concerns rat red blood cell. In words: Hemolytic action. The format is cell-based. The note with it: 10% rat red blood cell stock, 1% DMSO containing saline, 30 minutes at 37° C., absorbance 540 nm. On the procedure: Hemolytic Action […] After incubation for 30 minutes at, 37° C., the mixture was centrifugally separated and the supernatant was obtained. The absorbance (540 nm) of the supernatant was measured. The hemolysis ratio was calculated.

The target in data set [4] is H/K-ATPase (Oryctolagus cuniculus, UniProt P27112). In words: H/K-ATPase inhibition. The format is biochemical. The note with it: pH 7.4, H/K-ATPase from rabbit gastric mucous membrane. The protocol:
H/K-ATPase Inhibition The inhibitory effect was measured under pH 7.4, by using H/K-ATPase isolated and purified from the rabbit gastric mucous membrane.

Data set [5] has as its system ethanol ulcer in the gland gastric region. In words: Ethanol ulcer. The data set is classed as in vivo. The note with it: rats fasted 24 hours, drug oral, 99.5% ethanol 1 ml/rat after one hour, size of ulcer one hour later; dose not given. On the procedure:
Ethanol Ulcer Rats were fasted for 24 hours and orally administered with a drug. After one hour, 99.5% ethanol (1 ml/rat) was fed through oral administration. After one hour of ethanol administration, the abdomens of the rats were dissected and the size of ulcer in the gland gastric region was measured for each rat.

The mark [6] stands for this setting: Helicobacter pylori, read-out: MIC.

The structures appear in SMILES notation. Values after ≈ are worked out from the molar mass of the structure shown. Like-named read-outs stand apart in the source and are kept apart here.

H/K-ATPase, sequence (P27112 whole entry): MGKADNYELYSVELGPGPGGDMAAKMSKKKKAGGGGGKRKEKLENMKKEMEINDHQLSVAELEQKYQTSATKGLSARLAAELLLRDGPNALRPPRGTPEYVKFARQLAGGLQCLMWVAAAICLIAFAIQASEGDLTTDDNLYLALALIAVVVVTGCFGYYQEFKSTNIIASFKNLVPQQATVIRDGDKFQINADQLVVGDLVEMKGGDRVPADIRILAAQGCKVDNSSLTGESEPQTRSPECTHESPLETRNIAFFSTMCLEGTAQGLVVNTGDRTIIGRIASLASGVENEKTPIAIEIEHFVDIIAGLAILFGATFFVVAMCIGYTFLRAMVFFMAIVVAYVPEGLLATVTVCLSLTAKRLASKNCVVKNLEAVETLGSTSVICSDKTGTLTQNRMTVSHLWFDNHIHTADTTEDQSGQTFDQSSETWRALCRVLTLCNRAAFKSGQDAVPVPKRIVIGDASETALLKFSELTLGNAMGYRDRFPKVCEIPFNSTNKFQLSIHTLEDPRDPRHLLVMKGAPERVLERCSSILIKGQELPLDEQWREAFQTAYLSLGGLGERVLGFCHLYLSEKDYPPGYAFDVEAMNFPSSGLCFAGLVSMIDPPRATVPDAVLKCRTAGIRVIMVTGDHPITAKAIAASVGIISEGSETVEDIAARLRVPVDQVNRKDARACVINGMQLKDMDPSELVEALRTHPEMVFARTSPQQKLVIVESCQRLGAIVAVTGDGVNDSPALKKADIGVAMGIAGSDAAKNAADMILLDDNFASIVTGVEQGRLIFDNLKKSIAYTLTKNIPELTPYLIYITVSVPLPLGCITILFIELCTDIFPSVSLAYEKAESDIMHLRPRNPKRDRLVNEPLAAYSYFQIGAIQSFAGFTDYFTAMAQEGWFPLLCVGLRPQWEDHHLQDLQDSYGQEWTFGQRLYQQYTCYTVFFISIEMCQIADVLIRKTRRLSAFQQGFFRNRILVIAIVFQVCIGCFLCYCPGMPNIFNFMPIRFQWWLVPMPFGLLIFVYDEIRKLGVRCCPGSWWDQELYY
H/K-ATPase, sequence (P18597 whole entry partner): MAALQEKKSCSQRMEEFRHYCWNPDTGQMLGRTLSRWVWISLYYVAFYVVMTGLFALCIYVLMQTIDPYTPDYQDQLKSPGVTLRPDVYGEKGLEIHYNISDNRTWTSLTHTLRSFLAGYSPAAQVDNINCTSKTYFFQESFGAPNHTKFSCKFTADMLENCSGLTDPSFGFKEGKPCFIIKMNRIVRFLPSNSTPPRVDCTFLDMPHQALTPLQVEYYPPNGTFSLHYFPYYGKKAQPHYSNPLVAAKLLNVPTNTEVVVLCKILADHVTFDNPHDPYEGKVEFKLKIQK

One may read the MIC as the smallest concentration in the dilution series that meets the test's criterion for growth inhibition. As to `NCCCCCN(c1ccccc1NCCOc1ccc(Cl)cc1)S(=O)(=O)c1ccc(Cl)cc1` [Example 13, N-(5-Aminopenthyl)-N-(4-chlorobenzenesulfonyl)-N′-[2-(4-chlorophenoxy)ethyl]-o-phenylenediamine], in data set [1], the MIC lay within 25 to 50 µg/mL. The Suppression in data set [2] was found to be 82%.
By HC50 is commonly meant the concentration that lyses half of the red blood cells. Low readings indicate stronger haemolysis, high ones weaker haemolysis. The IC50 is the point on the concentration scale where inhibition reaches its midpoint. The molecule `CCCCS(=O)(=O)N(CCOCCN)c1ccccc1NCCOc1ccc(Cl)cc1` [Example 21] yielded an HC50 in data set [3] of 71.1 µg/mL. In addition, the midpoint of inhibition in data set [4], the IC50, lay at 49400 nM. Besides, in data set [1] (setting [6]), the MIC was in the range of 50 to 100 µg/mL (≈ 106 to 213 µM). Besides, the Suppression in data set [5] turned out to be 99%; in data set [2] it was 76%.
Molecule `CCCCCCCCS(=O)(=O)N(CCOCCN)c1ccccc1NCCOc1ccc(Cl)cc1` [Example 26, N-[2-(2-Amino)ethoxyethyl]-N-(1-octanesulfonyl)-N′-[2-(4-chlorophenoxy)ethyl]-o-phenylenediamine] registered an IC50 in data set [4] of 2100 nM. In addition, the Suppression in data set [5] amounted to 98%; in data set [2], 82%.
`NCCOCCN(c1ccccc1NCCOc1ccc(Cl)cc1)S(=O)(=O)c1ccc(Br)cc1` [Example 43, N-[2-(2-Amino)ethoxyethyl]-N-(4-bromobenzenesulfonyl)-N′-[2-(4-chlorophenoxy)ethyl]-o-phenylenediamine]: the HC50 in data set [3] was above 100 µg/mL. Also, the Suppression stood at 78% in data set [5] and 80% in data set [2].
As to `NCCOCCN(c1ccccc1NCCCOc1ccc(Cl)cc1)S(=O)(=O)c1ccc(Cl)cc1` [Example 61, N-[2-(2-Amino)ethoxyethyl]-N-(4-chlorobenzenesulfonyl)-N′-[3-(4-chlorophenoxy)propyl]-o-phenylenediamine], the Suppression in data set [2] is 87%.
Take `CN(CCOc1ccc(Cl)cc1)c1ccccc1N(CCOCCN)S(=O)(=O)c1ccc(Cl)cc1` [Example 68]: the Suppression in data set [5] is on record as 94%; in data set [2], 83%.
As for `NCCOCCN(c1ccccc1N(CCOc1ccc(Cl)cc1)Cc1ccccc1)S(=O)(=O)c1ccc(Cl)cc1` [Example 70, N-[2-(2-Amino)ethoxyethyl]-N-(4-chlorobenzenesulfonyl)-N′-benzyl-N′-[2-(4-chlorophenoxy)ethyl]-o-phenylenediamine], the IC50 in data set [4] amounted to 1100 nM. The MIC in data set [1] (setting [6]) fell in the range of 6.25 to 12.5 µg/mL (≈ 10.2 to 20.3 µM). The results for the Suppression in data set [5] and in data set [2] were 96% and 81%, respectively.
Consider `O=S(=O)(c1ccc(Cl)cc1)N(CCC1CCCCN1)c1cccnc1NCCNc1ccc(Cl)cc1` (centres unmarked) [Example 95], for which the Suppression in data set [5] was 99%; in data set [2], 90%.
`NCCOCCN(c1ccccc1N1CCN(c2ccc(Cl)cc2)CC1)S(=O)(=O)c1ccc(Cl)cc1` [Example 131, 2-[4-(4-Chlorophenyl)-1-piperazino]-1-[N-[2-(2-aminoethoxy)ethyl]-N-(4-chlorobenzenesulfonyl)]aminobenzene] yielded a Suppression in data set [2] of 89%.
With `NCCOCCN(c1ccccc1N1CCCN(c2ccc(Cl)cc2)CC1)S(=O)(=O)c1ccc(Cl)cc1` [Example 134, 2-[4-(4-Chlorophenyl)-1-homopiperazino]-1-[N-[2-(2-aminoethoxy)ethyl]-N-(4-chlorobenzenesulfonyl)]aminobenzene], the Suppression in data set [5] turned out to be 98%; in data set [2] it was 87%.
Take `NCCOCCN(c1cccnc1N1CCN(c2ccc(Cl)cc2)CC1)S(=O)(=O)c1ccc(Cl)cc1` [Example 137, 2-[4-(4-Chlorophenyl)-1-piperazino]-3-[N-[2-(2-aminoethoxy)ethyl]-N-(4-chlorobenzenesulfonyl)]aminopyridine]: the Suppression in data set [2] is given as 76%.
In the case of `NCCOCCN(c1cccc2c1N(CCOc1ccc(Cl)cc1)CCC2)S(=O)(=O)c1ccc(Cl)cc1` [Example 140, 8-[N-[2-(2-Aminoethoxy)ethyl]-N-(4-chlorobenzenesulfonyl)]amino-1-[2-(4-chlorophenoxy)ethyl]-1,2,3,4-tetrahydroquinone], in data set [4], the IC50 is 2000 nM. For the same molecule, the Suppression amounted to 94% in data set [5] and 85% in data set [2].

Source of the values: patent US6403607B1, “Sulfonamide derivatives and drugs containing the same as the active ingredient” (priority 1998, dated 2002).
